The target in assay [1] is T1, EphA2 (Homo sapiens, UniProt P29317). The experiment in a line: Phosphorylated-EphA2 sandwich ELISA in HT29 cell lysates. The class given is cell-based. Further details: their known ability to naturally express EphA2; endogenous in cells; host or cells: HT29 (A6). Conditions: HT29 cells, 100 µM. The protocol:
(§1) Cells were seeded in 12-well plates at concentration of 10^5cells/ml in complete medium until they reached ∼40% confluence and serum starved overnight. The day after cells were treated with compounds under study, vehicle or standard drug, stimulated with the proper agonist, rinsed with sterile PBS and solubilized in lysis buffer. The lysates were resuspended and rocked at 4°C for 30 minutes and then centrifuged at 14000 xg for 5 minutes. The protein content of supernatant was measured with BCA protein assay kit (Thermo scientific), standardized to 200 µg/ml and transferred into a clean test tube ready to be used.
(§2) EphA2-, EphB4- and EGFR-phosphorylation were measured in cell lysates using DuoSet®IC Sandwich ELISA (RnD Systems, #DYC4056, #DYC4057 and #DYC1095, respectively) following manufacturer's protocol. […] The day after wells were washed and blocked for 1 hour at room temperature. After that, wells were washed and 100 µl/well of lysates were added at room temperature for 2 hours; wells were washed and incubated with Detection Antibody at room temperature for 2 hours.
(§3) EphB4 phosphorylation was stimulated with 3 µg/ml ephrinB2-Fc, preclustered with 0.3 µg/ml IgG Fc fragment on T47D cells (G, H, I). […] Phospho-EphA2/B4 levels are relative to ephrinA1/B2-Fc+DMSO. Data are the means of at least three independent experiment ± st. err. One-way ANOVA followed by Dunnet's post test was performed comparing Fc to all other columns for Fig A, D, G and ephrinA1-Fc+DMSO to all other columns for Fig B,C,E, F, H, I. *, p<0.05, **, p<0.01.
Background: In an ELISA, binding on a coated surface is turned into a signal by an enzyme label.

Assay [2] concerns the target T1, EphA2. Nature of the assay: Phosphorylated-EphA2 sandwich ELISA in PC3 cell lysates. In kind it is cell-based. Further details: their known ability to naturally express EphA2; endogenous in cells; host or cells: PC3 (A5). The note with it: PC3 cells, 100 µM. The protocol:
as §1, §2, §3

In another assay the target is T2, EphA2-ephrinA1 binding (Mus musculus, UniProt Q03145).
T2 construct: we immobilized EphA2-Fc- ectodomain on proper ELISA plates; purchased R&D systems 639-A2 (EphA2-Fc); BT602 (biotinylated ephrinA1-Fc)
Nature of the assay: ELISA EphA2-ephrinA1 binding (displacement and saturation). The note with it: for decrease of EphA2-ephrinA1 binding: bile acids, repeat of the 200 µM experiment. The protocol:
Our chemical collection (Table S1) was stocked in a 20 mM dimethyl sulfoxide (DMSO) solution and we performed binding assay at a concentration of 200 µM. Only compounds displacing more than 40% ephrinA1 from EphA2 receptor were considered for a full concentration-binding curve. […] The day after wells were washed three times with washing buffer (PBS +0.05% tween20, pH 7.5) and blocked with 300 µl of blocking solution (PBS +0.5% BSA) for 1 hour at 37°C. Compounds were added to the wells at proper concentration in 1% dimethyl sulfoxide (DMSO) and incubated at 37°C for 1 hour. Biotinylated ephrinA1-Fc (R&D BT602) was added at 37°C for 4 hours at 30 ng/ml in displacement assays or in a range from 1 to 2000 ng/ml in saturation studies. […] The reaction was stopped with 3N HCl 100 µl/well and the absorbance was measured using an ELISA plate reader (Sunrise, TECAN, Switzerland) at 450 nm.
The IC50 value was determined using one-site competition non-linear regression and Kd values of the curves with or without antagonists were calculated using one-binding site non-linear regression analysis with Prism software (GraphPad Software Inc.). The Ki was obtained using Schild plot where Log[DR-1] is a function of the negative Log10 of the inhibitor concentration. The Hill's coefficient was calculated using linear fitting to evaluate whether the inhibition was competitive or uncompetitive.
To identify compounds interfering with EphA2-ephrinA1 binding we immobilized EphA2-Fc- ectodomain on proper ELISA plates and binding of biotinylated-ephrin-A1-Fc was detected using the colorimetric reaction developed by streptavidine-HRP and tetramethylbenzidine.

The values that follow come from paper PMC3068151 (PLoS ONE, 2011).

T2 sequence (Q03145 26-538 limits assumed): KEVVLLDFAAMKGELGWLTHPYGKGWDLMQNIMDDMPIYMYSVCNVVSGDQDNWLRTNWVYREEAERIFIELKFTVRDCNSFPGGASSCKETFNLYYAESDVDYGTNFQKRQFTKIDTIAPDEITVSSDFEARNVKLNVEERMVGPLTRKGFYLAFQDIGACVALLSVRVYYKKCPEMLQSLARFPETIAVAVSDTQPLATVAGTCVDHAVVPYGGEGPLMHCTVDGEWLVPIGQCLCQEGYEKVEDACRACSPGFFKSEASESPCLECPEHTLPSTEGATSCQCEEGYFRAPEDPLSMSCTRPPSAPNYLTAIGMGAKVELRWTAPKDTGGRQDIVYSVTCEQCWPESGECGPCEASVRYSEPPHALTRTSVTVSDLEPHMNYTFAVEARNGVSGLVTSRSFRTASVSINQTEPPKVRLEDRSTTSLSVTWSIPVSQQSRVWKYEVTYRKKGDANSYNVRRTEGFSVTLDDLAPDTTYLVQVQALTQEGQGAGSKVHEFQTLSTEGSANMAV
T1 sequence (P29317 24-976): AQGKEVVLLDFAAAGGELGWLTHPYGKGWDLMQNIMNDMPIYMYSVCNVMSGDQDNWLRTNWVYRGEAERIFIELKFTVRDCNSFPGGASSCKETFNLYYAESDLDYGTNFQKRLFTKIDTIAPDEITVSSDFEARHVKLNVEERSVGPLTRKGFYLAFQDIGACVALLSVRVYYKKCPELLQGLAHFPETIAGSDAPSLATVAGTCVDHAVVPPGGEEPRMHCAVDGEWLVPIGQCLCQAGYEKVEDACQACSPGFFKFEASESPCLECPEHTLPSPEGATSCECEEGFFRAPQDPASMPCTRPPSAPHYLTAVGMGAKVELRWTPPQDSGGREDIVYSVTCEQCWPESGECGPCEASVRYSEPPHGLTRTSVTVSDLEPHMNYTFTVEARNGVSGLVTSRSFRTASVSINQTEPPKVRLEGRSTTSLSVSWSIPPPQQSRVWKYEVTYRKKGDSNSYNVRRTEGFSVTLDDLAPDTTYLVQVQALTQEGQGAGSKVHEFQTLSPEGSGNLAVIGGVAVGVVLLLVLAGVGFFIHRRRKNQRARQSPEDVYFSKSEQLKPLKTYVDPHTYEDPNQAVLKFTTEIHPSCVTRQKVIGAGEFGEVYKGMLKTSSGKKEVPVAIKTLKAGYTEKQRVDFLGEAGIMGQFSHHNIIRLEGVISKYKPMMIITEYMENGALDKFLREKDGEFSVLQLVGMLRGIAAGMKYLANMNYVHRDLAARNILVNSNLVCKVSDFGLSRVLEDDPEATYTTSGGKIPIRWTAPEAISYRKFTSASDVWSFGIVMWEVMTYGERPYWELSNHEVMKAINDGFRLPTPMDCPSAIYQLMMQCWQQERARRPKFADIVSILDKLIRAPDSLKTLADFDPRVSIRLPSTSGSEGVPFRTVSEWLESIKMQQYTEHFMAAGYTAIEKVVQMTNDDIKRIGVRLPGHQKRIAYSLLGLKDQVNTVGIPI

For `C[C@H](CCC(=O)O)[C@H]1CC[C@H]2[C@@H]3[C@H](O)C[C@@H]4C[C@H](O)CC[C@]4(C)[C@H]3C[C@H](O)[C@]12C` [CA, cholic], the “effect on Eph kinase phosphorylation as agonist or antagonist” value (“effect on Eph kinase phosphorylation” for short) at EphA2 [1] and on EphA2 [2] was “inactive” in each case. Further, on EphA2-ephrinA1 binding, the “decrease of EphA2-ephrinA1 binding” value was “did not displaced”.

Take `C[C@H](CCC(=O)O)[C@H]1CC[C@H]2[C@@H]3[C@H](O)C[C@@H]4C[C@H](O)CC[C@]4(C)[C@H]3CC[C@]12C` [CDCA, chenodeoxycholic]: the “effect on Eph kinase phosphorylation” value at EphA2 [1] and at EphA2 [2] was “inactive” in each case. The “decrease of EphA2-ephrinA1 binding” value on EphA2-ephrinA1 binding was “did not displaced”.

On to `C[C@H](CCC(=O)O)[C@H]1CC[C@H]2[C@@H]3CC[C@@H]4C[C@H](O)CC[C@]4(C)[C@H]3C[C@H](O)[C@]12C` [DCA, deoxycholic], for which the “effect on Eph kinase phosphorylation” value on EphA2 [1] and at EphA2 [2] was “inactive” each time. Moreover, the “decrease of EphA2-ephrinA1 binding” value on EphA2-ephrinA1 binding was “did not displaced”.

B1: ephrinA1-Fc: recombinant ephrinA1-Fc protein, ligand of the EphA2-Fc receptor (protein)
chain: DRHIVFWNSSNPKFREEDYTVHVQLNDYLDIICPHYEDDSVADAAMERYTLYMVEHQEYVACQPQSKDQVRWNCNRPSAKHGPEKLSEKFQRFTPFILGKEFKEGHSYYYISKPIYHQESQCLKLKVTVNGKITHNPQAHVNPQEKRLQADDPEVQVLHSIGYS
modifications: Ectodomain only, with the C-terminal IgG Fc carrier omitted; The Fc chimera is a disulfide-linked dimer; Limits follow the mature ectodomain without the signal peptide and GPI propeptide, by supplier
Take B1: in the assay with EphA2-ephrinA1 binding (assay validation, Figure S1), the “Ki of EphA2-biotinylated-ephrin-A1 binding inhibition” value was 0.102 µg/mL.
